Read-outs that look alike come from different tables or passages of the source.
Assays:
MATE1 [1] = molecular target: T1, MATE1 (Homo sapiens, UniProt Q96FL8); assay: Uptake ratio in MATE1-overexpressing HEK293 cells vs empty vector (2.5 μM, 1 min, HPLC-MS/MS); assay type: cell-based; parameters: key to MATE1 substrate*: 1 = substrate; 0 = no substrate; conditions: for MATE1 substrate*: Table S4
T1 sequence (Q96FL8 1-570): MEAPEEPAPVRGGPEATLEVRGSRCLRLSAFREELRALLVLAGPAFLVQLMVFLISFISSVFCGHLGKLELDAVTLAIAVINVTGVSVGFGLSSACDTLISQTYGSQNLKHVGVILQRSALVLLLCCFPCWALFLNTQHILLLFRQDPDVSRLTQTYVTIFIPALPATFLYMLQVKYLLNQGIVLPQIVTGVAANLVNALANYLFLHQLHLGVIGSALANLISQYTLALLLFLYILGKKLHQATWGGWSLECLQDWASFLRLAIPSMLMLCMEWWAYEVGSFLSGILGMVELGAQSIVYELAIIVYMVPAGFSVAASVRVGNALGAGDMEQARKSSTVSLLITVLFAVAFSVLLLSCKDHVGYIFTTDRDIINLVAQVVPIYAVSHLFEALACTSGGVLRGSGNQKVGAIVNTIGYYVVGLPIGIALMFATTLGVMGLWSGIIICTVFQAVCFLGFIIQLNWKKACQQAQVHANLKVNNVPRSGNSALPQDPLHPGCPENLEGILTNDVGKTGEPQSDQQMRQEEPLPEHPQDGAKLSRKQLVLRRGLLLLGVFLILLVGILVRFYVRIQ

MATE2K [2] = molecular target: T2, MATE2K (Homo sapiens, UniProt Q86VL8); assay: Uptake ratio in MATE2K-overexpressing HEK293 cells vs empty vector (2.5 μM, 1 min, HPLC-MS/MS); assay type: cell-based; parameters: key to MATE2 substrate*: 1 = substrate; 0 = no substrate; conditions: for MATE2 substrate*: Table S4
[3] = cited from earlier work
MATE1 [4] = molecular target: T1, MATE1; assay: Concentration-dependent uptake (Michaelis-Menten) via MATE1 in HEK293 cells; conditions: for Km: read-out: MATE1 KM
MATE2K [5] = molecular target: T2, MATE2K; assay: Concentration-dependent uptake (Michaelis-Menten) via MATE2K in HEK293 cells; conditions: for Km: read-out: MATE2K KM
OCT1 = molecular target: T3, OCT1 (Homo sapiens, UniProt O15245); assay: Uptake in OCT1-overexpressing HEK293 cells (substrate yes/no); assay type: cell-based; parameters: key: 1 = substrate; 0 = no substrate; conditions: Table S4
T3 sequence (O15245 1-554): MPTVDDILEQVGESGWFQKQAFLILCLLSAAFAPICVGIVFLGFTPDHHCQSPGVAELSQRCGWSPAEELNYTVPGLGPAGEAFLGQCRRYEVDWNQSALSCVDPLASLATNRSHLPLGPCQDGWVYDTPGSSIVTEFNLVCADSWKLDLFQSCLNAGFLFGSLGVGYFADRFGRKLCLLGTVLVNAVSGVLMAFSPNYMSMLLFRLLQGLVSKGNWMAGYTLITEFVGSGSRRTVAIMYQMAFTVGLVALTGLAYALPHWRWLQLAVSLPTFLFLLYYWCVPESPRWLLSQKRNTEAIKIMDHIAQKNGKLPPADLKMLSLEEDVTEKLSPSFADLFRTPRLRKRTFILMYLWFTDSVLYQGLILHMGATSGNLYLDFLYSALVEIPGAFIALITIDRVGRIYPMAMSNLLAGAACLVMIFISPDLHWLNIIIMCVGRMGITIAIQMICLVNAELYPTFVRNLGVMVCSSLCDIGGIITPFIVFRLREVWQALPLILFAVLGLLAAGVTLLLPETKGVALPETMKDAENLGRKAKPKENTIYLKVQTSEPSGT
Procedure: (§1) The cell lines were generated using the recombinant site-specific Flp-In^TM system as previously described. , All cell lines used in the transport experiments were cultured at 37 °C and 5% CO2 with Dulbecco’s Modified Eagle’s Medium (DMEM) supplemented with 10% (v/v) FBS and the antibiotics penicillin (100 U/mL) and streptomycin (100 μg/mL).

OCT2 = molecular target: T4, OCT2 (Homo sapiens, UniProt O15244); assay: Uptake in OCT2-overexpressing HEK293 cells (substrate yes/no); assay type: cell-based; parameters: key: 1 = substrate; 0 = no substrate; conditions: Table S4
T4 sequence (O15244 1-555): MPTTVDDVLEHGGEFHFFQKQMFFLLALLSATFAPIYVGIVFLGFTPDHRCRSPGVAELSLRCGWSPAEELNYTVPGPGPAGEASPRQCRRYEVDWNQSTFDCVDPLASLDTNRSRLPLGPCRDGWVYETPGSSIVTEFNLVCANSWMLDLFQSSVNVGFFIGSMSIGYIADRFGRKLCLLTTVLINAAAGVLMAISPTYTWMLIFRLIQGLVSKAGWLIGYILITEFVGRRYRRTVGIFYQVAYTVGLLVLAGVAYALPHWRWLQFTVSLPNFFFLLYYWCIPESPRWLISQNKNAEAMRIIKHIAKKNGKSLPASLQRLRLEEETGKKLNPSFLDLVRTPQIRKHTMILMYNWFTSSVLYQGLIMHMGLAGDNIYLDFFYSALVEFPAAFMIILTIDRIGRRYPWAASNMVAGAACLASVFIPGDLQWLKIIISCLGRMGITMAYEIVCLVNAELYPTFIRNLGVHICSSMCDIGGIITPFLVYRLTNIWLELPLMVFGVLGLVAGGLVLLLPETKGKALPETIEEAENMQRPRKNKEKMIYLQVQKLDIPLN
Procedure: as §1

[6] = fold uptake over empty vector, 2.5 μM, 1 min
[7] = uptake ratio MATE1-overexpressing vs empty-vector HEK293 cells, 2.5 μM, 1 min, mean
[8] = uptake ratio MATE2K-overexpressing vs empty-vector HEK293 cells, 2.5 μM, 1 min, mean

T2 sequence (Q86VL8 1-566 isoform Q86VL8-3): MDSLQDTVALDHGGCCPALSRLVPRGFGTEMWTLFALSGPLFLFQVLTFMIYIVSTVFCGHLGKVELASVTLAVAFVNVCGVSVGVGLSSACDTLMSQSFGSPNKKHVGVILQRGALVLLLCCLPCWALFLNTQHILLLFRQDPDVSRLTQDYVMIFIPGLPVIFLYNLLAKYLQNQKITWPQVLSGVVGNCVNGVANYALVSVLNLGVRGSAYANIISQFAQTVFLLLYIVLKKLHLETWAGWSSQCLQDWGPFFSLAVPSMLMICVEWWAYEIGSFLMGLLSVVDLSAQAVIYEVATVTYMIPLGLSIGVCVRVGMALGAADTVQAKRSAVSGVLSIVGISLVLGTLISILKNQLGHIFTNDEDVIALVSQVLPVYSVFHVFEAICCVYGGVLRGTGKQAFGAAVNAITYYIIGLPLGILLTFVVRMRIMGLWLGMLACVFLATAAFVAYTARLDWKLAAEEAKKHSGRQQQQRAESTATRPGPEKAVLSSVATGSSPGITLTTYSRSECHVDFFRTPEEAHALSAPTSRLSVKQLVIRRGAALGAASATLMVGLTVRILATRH

MATE1 (MATE1 [1]; [7])	MATE2 (MATE2K [2]; [8])	MATE1 Vmax (MATE1 [4]; HEK293, 1 min, net uptake)	MATE1 substrate* (MATE1 [1])	MATE2 substrate* (MATE2K [2])	OCT1 substrate* (OCT1)	OCT2 substrate* (OCT2)	SMILES	eliminated unchanged via the kidneys ([3]; human)	other results
19.7	1.62						CC(C)NCC(O)c1ccc(NS(C)(=O)=O)cc1 (stereo not drawn) [Sotalol]	more than 70%	MATE1 ratio (MATE1 [1]; [6]): 19.70; MATE1 ratio (MATE1 [1]; fold uptake over empty vector, 2.5 μM, 1 min, listed as sotalol): above 2; MATE2K ratio (MATE2K [2]; [6]): 1.62
							CCN1CCCC1CNC(=O)c1cc(S(N)(=O)=O)ccc1OC (stereo not drawn) [Sulpiride]		eliminated unchanged via the kidneys ([3]; in vivo): more than 70%; MATE1 Vmax (MATE1 [4]): 851 pmol × mg protein^–1 × min^–1; Km (MATE1 [4]; HEK293, 1 min, net uptake): 16 µM; MATE2K Vmax (MATE2K [5]): 1025 pmol × mg protein^–1 × min^–1; Km (MATE2K [5]; HEK293, 1 min, net uptake): 22.8 µM
							O=C(O[C@H]1C[C@H]2CC[C@@H](C1)[N+]21CCCC1)C(O)(c1ccccc1)c1ccccc1 [Trospium]	more than 70%	MATE1 (MATE1 [1]): 21.28; MATE1 ratio (MATE1 [1]): above 2; MATE1 ratio in this study (MATE1 [1]): 21.28; MATE2 (MATE2K [2]): 5.18; MATE2K ratio in this study (MATE2K [2]): 5.18
12.98	1.22	10,171 pmol × mg protein^–1 × min^–1					Nc1ccn([C@H]2CC[C@@H](CO)O2)c(=O)n1 [Zalcitabine]	more than 70%	MATE1 ratio in this study (MATE1 [1]; Table S1, 2.5 μM, 1 min): 12.98; MATE1 ratio (MATE1 [1]; [6]): above 2; MATE2K ratio in this study (MATE2K [2]; Table S1, 2.5 μM, 1 min): 1.22; Km (MATE1 [4]; HEK293, 1 min, net uptake): 1560 µM; MATE2K Vmax (MATE2K [5]; HEK293, 1 min, net uptake): linear
1.2	1.25		0	0	0	0	O=C1Cc2cc(CCN3CCN(c4nsc5ccccc45)CC3)c(Cl)cc2N1 [Ziprasidone]		
12.88	6.48	2624 pmol × mg protein^–1 × min^–1	1	1	1	1	CN(C)CCc1c[nH]c2ccc(C[C@H]3COC(=O)N3)cc12 [Zolmitriptan (R), Zolmitriptan]		
13.34	5.38	2849 pmol × mg protein^–1 × min^–1	1	1	1	0	CN(C)CCc1c[nH]c2ccc(C[C@H]3COC(=O)N3)cc12 [Zolmitriptan (S), Zolmitriptan]		MATE2K Vmax (MATE2K [5]; HEK293, 1 min, net uptake): 1662 pmol × mg protein^–1 × min^–1; Km (MATE2K [5]; HEK293, 1 min, net uptake): 94.5 µM
11.83	5.51	2992 pmol × mg protein^–1 × min^–1	1	1	1	0	CN(C)CCc1c[nH]c2ccc(C[C@H]3COC(=O)N3)cc12 [Zolmitriptan]		
0.51	1.34		0	0	0		CN(C)CCOC1=Cc2ccccc2Sc2ccc(Cl)cc21 [Zotepin]		

Reference: article PMC12207590, “Substrate Specificity of the Organic Cation Transporters MATE1 and MATE2K and Functional Overlap with OCT1 and OCT2” (Journal of Medicinal Chemistry, 2025)
